Literature values as cited in patent US10206884B2, “Microcapsules with polymeric coating comprising a lipid and an active agent” (FRESENIUS KABI DEUTSCHLAND GMBH, priority 2013, dated 2019).

CCCC(=O)OCC(COC(=O)CCC)OC(=O)CCC [tributyrin, 1,3-di(butanoyloxy)propan-2-yl butanoate]
solubility in water: only poorly soluble in water
